Laboratory results published in ChEMBL document CHEMBL1201862, “PubChem BioAssay data set” (2004).
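Dose response: 5 concentrations. Exposure: 48 h. Format: 96-well plates. Endpoint: linear interpolation; highest concentration if not reached. Abbreviation: GI50, concentration required for 50% inhibition of growth.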 The source made the active and inactive calls. Cut-off read from the data, not from the text of the source: active = GI50 up to about 1.1 µM and inactive = higher.

Columns and labels:
Test in all cases: NCI tumour cell line growth inhibition, 48 h
[1] = tested on: A549
[2] = tested on: ACHN
[3] = tested on: CAKI-1
[4] = tested on: CCRF-CEM
[5] = tested on: COLO 205
[6] = tested on: DLD-1
[7] = tested on: DMS-114
[8] = tested on: DMS-273
[9] = tested on: EKVX
[10] = tested on: HCC 2998
[11] = tested on: HCT-116
[12] = tested on: HCT-15
[13] = tested on: HL-60
[14] = tested on: HOP-18
[15] = tested on: HOP-92
[16] = tested on: HT-29
[17] = tested on: IGROV-1
[18] = tested on: K562
[19] = tested on: KM-20L2
[20] = tested on: KM12
[21] = tested on: LOX IMVI
[22] = tested on: M14
[23] = tested on: M19-MEL
[24] = tested on: MOLT-4
[25] = tested on: Malme-3M
[26] = tested on: NCI-H226
[27] = tested on: NCI-H23
[28] = tested on: NCI-H460
[29] = tested on: NCI-H522
[30] = tested on: OVCAR-5
[31] = tested on: OVCAR-8
[32] = tested on: RXF 393
[33] = tested on: SF-268
[34] = tested on: SF-295
[35] = tested on: SF-539
[36] = tested on: SK-MEL-28
[37] = tested on: SK-MEL-2
[38] = tested on: SK-OV-3
[39] = tested on: SN12C
[40] = tested on: SNB-19
[41] = tested on: SNB-75
[42] = tested on: SNB-78
[43] = tested on: SW-620
[44] = tested on: TK-10
[45] = tested on: U-251
[46] = tested on: UACC-257
[47] = tested on: UO-31
[48] = tested on: 786-0
[49] = tested on: HOP-62
[50] = tested on: LXFL 529
[51] = tested on: OVCAR-3
[52] = tested on: OVCAR-4
[53] = tested on: RPMI-8226
[54] = tested on: SK-MEL-5
[55] = tested on: SR
[56] = tested on: UACC-62

SMILES: C=C(/C=C/C=C(/CCC=C(C)C)COC(C)=O)[C@@H]1CC[C@]2([C@H](CCCO)/C(=C(/C)C=O)CC[C@]2(C)O)[C@@H]1O
- GI50 [1]: 3.27 µM (inactive)
- GI50 [2]: 11.5 µM (inactive)
- GI50 [3]: 3.05 µM (inactive)
- GI50 [4]: 1.86 µM (inactive)
- GI50 [5]: 0.558 µM (active)
- GI50 [6]: 11.9 µM (inactive)
- GI50 [7]: 14.2 µM (inactive)
- GI50 [8]: 2.27 µM (inactive)
- GI50 [9]: 18.1 µM (inactive)
- GI50 [10]: 7.4 µM (inactive)
- GI50 [11]: 19.5 µM (inactive)
- GI50 [12]: 14.5 µM
- GI50 [13]: 0.912 µM (active)
- GI50 [14]: 11.5 µM (inactive)
- GI50 [15]: < 0.01 µM (active)
- GI50 [16]: 14.8 µM (inactive)
- GI50 [17]: 17.2 µM (inactive)
- GI50 [18]: 2.92 µM (inactive)
- GI50 [19]: 14.4 µM (inactive)
- GI50 [20]: 16.2 µM (inactive)
- GI50 [21]: 10.4 µM (inactive)
- GI50 [22]: 11 µM (inactive)
- GI50 [23]: 15.7 µM (inactive)
- GI50 [24]: 9.29 µM (inactive)
- GI50 [25]: 0.0429 µM (active)
- GI50 [26]: 4.61 µM (inactive)
- GI50 [27]: 18.8 µM (inactive)
- GI50 [28]: 0.414 µM (active)
- GI50 [29]: 17.1 µM (inactive)
- GI50 [30]: 39 µM (inactive)
- GI50 [31]: 22.1 µM (inactive)
- GI50 [32]: 18.4 µM (inactive)
- GI50 [33]: 15.7 µM (inactive)
- GI50 [34]: 0.973 µM (active)
- GI50 [35]: 14 µM (inactive)
- GI50 [36]: 13.7 µM (inactive)
- GI50 [37]: 17.9 µM (inactive)
- GI50 [38]: 29.1 µM (inactive)
- GI50 [39]: 15.8 µM (inactive)
- GI50 [40]: 16.1 µM (inactive)
- GI50 [41]: > 10 µM (inactive)
- GI50 [42]: > 10 µM (inactive)
- GI50 [43]: 2.42 µM (inactive)
- GI50 [44]: 14.2 µM (inactive)
- GI50 [45]: 15 µM (inactive)
- GI50 [46]: 17.7 µM (inactive)
- GI50 [47]: 12.7 µM (inactive)

SMILES: CCOc1cc2cnc3c4cc(OC)c(OC)cc4ccc3c2cc1OC
- GI50 [48]: > 100 µM (inactive)
- GI50 [1]: > 100 µM (inactive)
- GI50 [2]: > 100 µM (inactive)
- GI50 [3]: > 100 µM (inactive)
- GI50 [4]: 23.8 µM (inactive)
- GI50 [5]: 4.92 µM (inactive)
- GI50 [6]: > 100 µM (inactive)
- GI50 [7]: 7.1 µM (inactive)
- GI50 [9]: > 100 µM (inactive)
- GI50 [10]: > 100 µM (inactive)
- GI50 [11]: > 100 µM (inactive)
- GI50 [12]: > 100 µM
- GI50 [13]: 40.2 µM (inactive)
- GI50 [14]: 16.9 µM (inactive)
- GI50 [49]: > 100 µM (inactive)
- GI50 [15]: > 100 µM (inactive)
- GI50 [16]: > 100 µM (inactive)
- GI50 [17]: > 100 µM (inactive)
- GI50 [18]: 20.7 µM (inactive)
- GI50 [19]: > 100 µM (inactive)
- GI50 [20]: 46.9 µM (inactive)
- GI50 [21]: 65 µM (inactive)
- GI50 [50]: 9.02 µM (inactive)
- GI50 [22]: > 100 µM (inactive)
- GI50 [23]: 39.8 µM (inactive)
- GI50 [24]: 49.8 µM (inactive)
- GI50 [25]: 90.4 µM (inactive)
- GI50 [26]: > 100 µM (inactive)
- GI50 [27]: > 100 µM (inactive)
- GI50 [28]: > 100 µM (inactive)
- GI50 [29]: 15.2 µM (inactive)
- GI50 [51]: 29.9 µM (inactive)
- GI50 [52]: 86.7 µM (inactive)
- GI50 [30]: > 100 µM (inactive)
- GI50 [31]: 43.4 µM (inactive)
- GI50 [53]: > 100 µM (inactive)
- GI50 [32]: > 100 µM (inactive)
- GI50 [33]: 37.3 µM (inactive)
- GI50 [34]: 26.4 µM (inactive)
- GI50 [35]: > 100 µM (inactive)
- GI50 [36]: > 100 µM (inactive)
- GI50 [37]: 69 µM (inactive)
- GI50 [54]: > 100 µM (inactive)
- GI50 [38]: > 100 µM (inactive)
- GI50 [39]: 30 µM (inactive)
- GI50 [40]: 19.4 µM (inactive)
- GI50 [41]: > 100 µM (inactive)
- GI50 [42]: > 100 µM (inactive)
- GI50 [55]: 27.3 µM (inactive)
- GI50 [43]: > 100 µM (inactive)
- GI50 [44]: > 100 µM (inactive)
- GI50 [45]: 6.4 µM (inactive)
- GI50 [46]: > 100 µM (inactive)
- GI50 [56]: > 100 µM (inactive)
- GI50 [47]: > 100 µM (inactive)
